Results from US5194645A, “Trans-Pt (IV) compounds” (Johnson Matthey Public Limited Company, priority 1991, dated 1993).
pIC50: −log10 of the molar value.

How the values were obtained:
GCT27 ®/GCT27 = test: Resistance factor GCT27 ®/GCT27; assay type: cell-based, human; conditions: ratio of IC50 resistant to nonresistant line, testicular
Method: (§1) Additional in vitro biological testing was conducted using cell lines derived from human carcinomas and maintained at the Institute of Cancer Research, Sutton, England (see C A Hills & colleagues, Br J Cancer 59, 527-34 (1989)). Monolayer cells were trypsinized and seeded in 96-well microtiter plates at a density of 1×10^4 cells/well in 200 μl of growth medium. Cells were incubated overnight and test compounds were added to triplicate wells at various concentrations for a total of 48 to 96 hours. For toxicity analysis after drug exposure, the cells were fixed with trichloroacetic acid and stained for cellular protein content by incubation for 30 minutes with 0.4% (wt/vol) sulforodamine B (SRB) dissolved in 1% acetic acid. The unbound dye was removed by 1% acetic acid washes, and the bound dye was extracted with 10 mM Tris buffer. The amount of dye in solution was quantified by absorbance at 564 nm.
(§2) In the Tables A and B below, all the cells are ovarian cancer cells with the exception of GCT27^R /GCT27 which are testicular. Table A gives IC50 values in μM; Table B gives Resistance Factors as a ratio of IC50 for a cell line bred to be resistant to cisplatin against IC50 for the nonresistant cell line.

41M = test: In vitro cytotoxicity (SRB), 41M; assay type: cell-based, human; conditions: ovarian cancer, 48 to 96 hours
Method: as §1, §2

L1210 = test: In vivo L1210 leukemia, increase in life span; conditions: 9 mg/kg, ip, days 1, 5 and 9, DBA/2 mice
Method: (§3) The animals were sacrificed when moribund. The compounds were administered parenterally (ip).
(§4) The compound of Example 2 was tested against L1210 leukemia, and also against a strain of L1210 resistant to cisplatin, in mice, and the increase in life span (ILS) determined against control mice not being administered any active compound, according to the equation, [formula] where T=days survival of treated mice and
(§5) C=days survival of control mice

SKOV-3 = test: In vitro cytotoxicity (SRB), SKOV-3; assay type: cell-based, human; conditions: SKOV-3, ovarian cancer, 48 to 96 hours
Method: as §1, §2

41M ®/41M = test: Resistance factor 41M ®/41M; assay type: cell-based, human; conditions: ratio of IC50 resistant to nonresistant line, ovarian
Method: as §1, §2

Resistant L1210 = test: In vivo cisplatin-resistant L1210 leukemia, increase in life span; conditions: 9 mg/kg, ip, days 1, 5 and 9, DBA/2 mice, L1210 resistant to cisplatin
Method: as §3, §4, §5

CHI = test: In vitro cytotoxicity (SRB), CHI; assay type: cell-based, human; conditions: ovarian cancer, 48 to 96 hours
Method: as §1, §2

HX62 = test: In vitro cytotoxicity (SRB), HX62; assay type: cell-based, human; conditions: HX62, ovarian cancer, 48 to 96 hours
Method: as §1, §2

Adj/PC6/tetraplatin res = test: In vivo Adj/PC6 tetraplatin-resistant tumour test in mice; design: key to ED90: --: indicates 90% inhibition not achieved for doses up to LD50
Method: as §3

PXN/94 = test: In vitro cytotoxicity (SRB), PXN/94; assay type: cell-based, human; conditions: PXN/94, ovarian cancer, 48 to 96 hours
Method: as §1, §2

CHI ® = test: In vitro cytotoxicity (SRB), CHI ®; assay type: cell-based, human; conditions: CHI ® (cisplatin resistant), ovarian cancer, 48 to 96 hours
Method: as §1, §2

CHI ®/CHI = test: Resistance factor CHI ®/CHI; assay type: cell-based, human; conditions: ratio of IC50 resistant to nonresistant line, ovarian
Method: as §1, §2

Adj/PC6/cisplatin res = test: In vivo Adj/PC6 cisplatin-resistant tumour test in mice
Method: as §3

41M ® = test: In vitro cytotoxicity (SRB), 41M ®; assay type: cell-based, human; conditions: 41M ® (cisplatin resistant), ovarian cancer, 48 to 96 hours
Method: as §1, §2

Adj/PC6/iproplatin res = test: In vivo Adj/PC6 iproplatin-resistant tumour test in mice
Method: as §3

OVCAR-3 [1] = test: In vivo OVCAR-3 ovarian carcinoma xenograft; design: species or system mice; conditions: for Growth Delay: delay in doubling of tumour volume vs control
Method: The "growth delay" was also measured which represents the delay in achieving a doubling of the tumour volume for the treated group compared to the control group.

A2780 ®/A2780 = test: Resistance factor A2780 ®/A2780; assay type: cell-based, human; conditions: ratio of IC50 resistant to nonresistant line, ovarian
Method: as §1, §2

OVCAR-3 [2] = test: In vivo OVCAR-3 ovarian carcinoma xenograft; design: species or system mice; conditions: tumour volume vs control
Adj/PC6 = test: In vivo Adj/PC6 tumour test in mice (LD50, ED90, therapeutic index)
Method: The Adj/PC6 testing was carried out as described by P M Goddard et al presented in Sixth NCI-EORTC Symposium on New Drugs in Cancer Therapy 1989, which is a development of the basic method described by T A Connors et al, Chem Biol Interact 5, 415(1972). The in vivo L1210 tests were conducted according to the NCI protocol, Cancer Chemotherapy Reports, Part 3, vol 2, (Sept 1972) except that the animals used were DBA/2 mice and that dosing was carried out on days 1, 5 and 9. The animals were sacrificed when moribund. The compounds were administered parenterally (ip).
In the Adj/PC6 testing, LD50 and ED90 values in mg/kg body weight were determined in the conventional manner. The therapeutic index (TI) was calculated as the ratio of LD50 to ED90, and the results are shown below.
Additional tests were carried out in vivo using the compound of Example 2, against sensitive Adj/PC6 tumour cell lines, and against tumour cell lines resistant to various platinum anti-tumour agents, and a TI (Therapeutic Index) calculated, as described above.

[3] = Adj/PC6, comparison with cis-isomer

[NH2][Pt]([OH])([OH])([Cl])([Cl])[NH]C1CCCCC1 [EX 2, trans-[PtCl2 (OH)2 (NH3)(c-C6H11 NH2)]] was tested, and the “Resistance Factor GCT27 ®/GCT27” value (GCT27 ®/GCT27) was 1.8, the pIC50 (41M) was 5.82 and the “ILS (increase in life span)” value (L1210) was 77%. The pIC50 (SKOV-3) was 5.06, the “Resistance Factor 41M ®/41M” value (41M ®/41M) was 1.2 and the “ILS (increase in life span)” value (Resistant L1210) was 39%. The pIC50 (CHI) was 5.85, the pIC50 (HX62) was 5.23 and the ED90 (Adj/PC6/tetraplatin res) was “--”. For the same compound, the LD50 (Adj/PC6/tetraplatin res) was 8.8 mg/kg, the pIC50 (PXN/94) was 5.43 and the pIC50 (CHI ®) was 5.66. For the same compound, the “Resistance Factor CHI ®/CHI” value (CHI ®/CHI) was 1.6, the ED90 (Adj/PC6/cisplatin res) was 5.6 mg/kg and the LD50 (Adj/PC6/cisplatin res) was 10.5 mg/kg. The “TI (Therapeutic Index)” value (Adj/PC6/cisplatin res) was 1.88, the pIC50 (41M ®) was 5.74 and the ED90 (Adj/PC6/iproplatin res) was 2.6 mg/kg. For the same compound, the LD50 (Adj/PC6/iproplatin res) was 8.8 mg/kg, the “TI (Therapeutic Index)” value (Adj/PC6/iproplatin res) was 3.4 and the “Growth Delay” value (OVCAR-3 [1]; 1 mg/kg) was 0.9 days. The “Growth Delay” value (OVCAR-3 [1]; 2 mg/kg) was 12.0 days, the “Growth Delay” value (OVCAR-3 [1]; 4 mg/kg) was 16.8 days and the “dose-related effect (OVCAR-3 xenograft)” value (OVCAR-3 [1]; increasing doses) was “clear dose-related effect”. For the same compound, the “Resistance Factor A2780 ®/A2780” value (A2780 ®/A2780) was 7.1, the “T/C (day 28)” value (OVCAR-3 [2]; 1 mg/kg) was 0.80 and the “T/C (day 28)” value (OVCAR-3 [2]; 2 mg/kg) was 0.64. For the same compound, the “T/C (day 28)” value (OVCAR-3 [2]; 4 mg/kg) was 0.48, the ED90 (Adj/PC6; [3]) was 0.76 mg/kg and the “TI (Therapeutic Index)” value (Adj/PC6; [3]) was 11.6. The ED90 (Adj/PC6; Adj/PC6 testing, mice, ip) was 0.76 mg/kg body weight, the LD50 (Adj/PC6; Adj/PC6 testing, mice, ip) was 8.8 mg/kg body weight and the “TI (therapeutic index, ratio of LD50 to ED90)” value (Adj/PC6; Adj/PC6 testing, mice, ip) was 11.6. The “activity compared with the cis isomer” value (Adj/PC6; sensitive and platinum-resistant Adj/PC6 tumours) was “possesses activity, and a different spectrum of activity to the cis isomer”.
